Converted amounts (≈) assume the structure as drawn. Where two headings read alike, the source gives them in different places.
Key:
[1] = tested on: TGEV (an alpha-coronavirus); conditions: cited from earlier work
VSVΔ51M [2] = assay type: cell-based, vesicular stomatitis Indiana virus (VSV); conditions: 10 μM
PERK [3] = assay type: cell-based; conditions: for increase in eIF2α phosphorylation: 20 μM, 0.1 MOI, lysed 24 h; for eIF2α phosphorylation (eIF2α-P relative to total eIF2α), in words: HEK293 infected at 0.1 MOI, 10 or 20 μM, lysed 24 hours post-infection
VSVΔ51M [4] = assay type: cell-based, vesicular stomatitis Indiana virus (VSV)
Lipophilicity (logD7.4) = conditions: for logD: pH 7.4
PERK [5] = assay: eIF2α phosphorylation in non-infected HEK293 cells; assay type: cell-based; conditions: lysed 24 hours post-treatment
[6] = tested on: asialoglycoprotein receptor H2b; assay: Oligosaccharide maturation of H2b in transfected HEK293 cells (western blot); assay type: cell-based; conditions: Endo H
ACE2 = assay: Oligosaccharide maturation of ACE2 in transfected HEK293 cells (western blot); assay type: cell-based; conditions: Endo H or N-glycanase
SARS-CoV-2 = assay type: cell-based
[7] = treatment began at the start of the infection

SMILES	expression of TGEV viral proteins and viral titers [1]	solubility (Solubility) [µM]	solubility compared to MK-28 (Solubility; ratio GLB7 vs MK-28)	inhibition of replication, comparison between compounds (VSVΔ51M [2])	reduction of titer of infectious virions (VSVΔ51M [2])	increase in eIF2α phosphorylation (PERK [3]; [7])	eIF2α phosphorylation (eIF2α-P relative to total eIF2α), in words (PERK [3])	infectivity (VSV-G level), in words (VSVΔ51M [4])	decrease in infectivity (VSV-G relative to actin) (VSVΔ51M [4]; 20 μM)	lipophilicity, in words (Lipophilicity (logD7.4); compared with MK-28)	logD (Lipophilicity (logD7.4))	increase in eIF2α phosphorylation (PERK [5]; 10 μM)	increase in eIF2α phosphorylation (PERK [5]; 20 μM)	effect on maturation of H2b [6]	effect on maturation of ACE2 (ACE2)	increase in eIF2α phosphorylation (PERK [3]; treatment began 3 hours after the start of the infection)	reduction of SARS-CoV-2 replication (titer of infectious virions) (SARS-CoV-2)
O=C(COc1ccc(Cl)cc1)NC1CCC(NC(=O)COc2ccc(Cl)cc2)CC1 (centres unmarked) [ISRIB]	increased	–	–	–	–	–	–	–	–	–	–	–	–	–	–	–	–
Oc1ccc(C=NNc2nc(-c3ccccc3)cc(-c3ccccc3)n2)cc1O (racemic) [GLB7, 4-((2-(4,6-diphenylpyrimidin-2-yl)hydrazono)methyl)benzene-1,2-diol]	–	16 (≈ 6.12 µg/mL)	more than 10 fold	greater inhibition than MK-28	several orders of magnitude	about 1.5 fold	strong increase	major decrease in infectivity	about 3 fold	decreased lipophilicity	3.6	–	–	–	–	–	–
CN(N=Cc1ccc(O)c(O)c1)c1nc(-c2ccccc2)cc(-c2ccccc2)n1 [MK-28, 4-((2-(4,6-diphenylpyrimidin-2-yl)-2-methylhydrazineylidene)methyl) benzene-1,2-diol]	–	1.4 (≈ 0.555 µg/mL)	–	greater inhibition of replication than did GLB7	several orders of magnitude	about 5 fold	strong increase	–	–	–	4.5	about 1.4 fold	about 1.1 fold	no effect	no effect	about 4 fold	10- to 100 fold
